Assay [1] in a line: Binding affinity to Clostridium difficile [5'-32P]guaA riboswitch by polyacrylamide gel electrophoresis method. Details: species or system Clostridioides difficile.
The subject of assay [2] is Clostridioides difficile. In words: Antibacterial activity against Clostridium difficile ATCC 700057 up to 5000 ug/ml by broth microdilution method. In kind it is functional, organism-based. (In general: Broth dilution looks for growth in wells or tubes with falling amounts of substance.)
For assay [3], the system named is Clostridioides difficile. Description: Antibacterial activity against Clostridium difficile ATCC 700057 by broth microdilution method. In kind it is functional.
Assay [4] can be described thus: Binding affinity to Bacillus subtilis guaA riboswitch.
Assay [5] in a line: Binding affinity to Staphylococcus aureus [5'-32P]guaA riboswitch by polyacrylamide gel electrophoresis method.

Converted amounts (≈) assume the structure as drawn. The source made the active and inactive calls. The rule behind the calls is not given here. Some results are limits rather than exact numbers.

The term Kd denotes the free concentration of one partner at which half of the binding sites on the other are occupied at equilibrium, for simple one-to-one binding. Low readings indicate higher affinity, high ones lower affinity. `CN(C)CCNC(=O)Nc1nc2[nH]cnc2c(=O)[nH]1` had a Kd in assay [1] of 2.06 µM. Moreover, the outcome in assay [2] was inactive.
The matching figures for `Nc1nc2scnc2c(=O)[nH]1`: 7.4 µM and “inactive”.
The matching figures for `Cn1cnc2c(O)nc(N)nc21` [9-Methylguanine]: 8.1 µM and “inactive”.
Compound `Nc1nc(O)c2ncn(Cc3ccccc3)c2n1` came in with a dissociation constant (Kd) in assay [1] greater than 1000 µM. Further, the outcome in assay [2] was inactive.
In assay [1], `O=c1[nH]c(NCc2ccccn2)nc2[nH]cnc12` came in with a dissociation constant (Kd) of 24.4 µM. In assay [2], the outcome was inactive.
The term MIC denotes the least concentration at which growth counts as inhibited. A high value points to a need for much substance. For `CCCCNc1nc(N)nc2[nH]cnc12`, in assay [1], the Kd stood at 12.3 µM. Besides, the minimal inhibitory concentration (MIC) in assay [3] stood at 313 µg/mL (≈ 1.52 mM).
In turn, `Nc1nc(NCc2ccc(F)cc2)c2nc[nH]c2n1` registered a Kd in assay [1] of 25.2 µM. Also, in assay [3], the MIC was 313 µg/mL (≈ 1.21 mM).
For the compound `Nc1nc2[nH]cnc2c(=O)[nH]1` [GUANINE], the values for the equilibrium dissociation constant (Kd) in assay [1] and in assay [4] were 0.002 µM and 0.005 µM, respectively.
In turn, `Nc1nc2nnccc2c(=O)[nH]1` displayed a Kd in assay [1] greater than 1000 µM. Also, the result in assay [2] was inactive.
For the compound `O=c1[nH]c(NCCc2c[nH]cn2)nc2[nH]cnc12`, the affinity in assay [1], expressed as Kd, was 300 µM. The MIC in assay [3] stood at 1250 µg/mL (≈ 5.1 mM).
For the compound `NCCNc1nc(N)nc2[nH]cnc12`, the equilibrium dissociation constant (Kd) in assay [1] was greater than 1000 µM. The outcome in assay [2] was inactive.
`O=C(Nc1nc2[nH]cnc2c(=O)[nH]1)N1CCCCC1`: in assay [1], the Kd was 29.4 µM. For the same compound, the result in assay [2] was inactive.
The matching figures for `CC(=O)Nc1nc(=O)c2[nH]cnc2[nH]1`: 1.05 µM and “inactive”.
Consider `CCCNc1nc(N)nc2[nH]cnc12`, for which binding in assay [1] was put at a Kd of 68.3 µM. 625 µg/mL (≈ 3.25 mM) was the least that counted as inhibitory in assay [3] (MIC).
Regarding `Nc1nc(NCCCO)c2nc[nH]c2n1`, in assay [1], binding was put at a Kd of 0.63 µM. Also, in assay [2], the result was inactive.
For `Nc1nc2snnc2c(=O)[nH]1`, the Kd in assay [1] was greater than 1000 µM. Besides, the minimum inhibitory concentration (MIC) in assay [3] was found to be 156 µg/mL (≈ 0.922 mM).
As for `O=C(NCCO)Nc1nc2[nH]cnc2c(=O)[nH]1`, the dissociation constant Kd in assay [1] is 2.67 µM. Moreover, in assay [2], the outcome was inactive.
In assay [1], `O=c1[nH]c(NCCc2ccc(O)cc2)nc2[nH]cnc12` showed a Kd greater than 1000 µM. The MIC in assay [3] was found to be 1250 µg/mL (≈ 4.61 mM).
The compound `Nc1nc2nsnc2c(=O)[nH]1` returned a Kd in assay [1] greater than 1000 µM. The outcome in assay [2] was inactive.
With `COc1ccc(CNc2nc(N)nc3[nH]cnc23)cc1`, in assay [1], the equilibrium dissociation constant (Kd) amounted to 71.3 µM. Moreover, 313 µg/mL (≈ 1.16 mM) was the least that counted as inhibitory in assay [3] (MIC).
For `CCCCNc1nc(O)c2[nH]cnc2n1`, the Kd in assay [1] was found to be 4 µM. The same compound displayed a minimum inhibitory concentration (MIC) in assay [3] of 625 µg/mL (≈ 3.02 mM).
Compound `O=c1[nH]c(NCCCO)nc2[nH]cnc12` gave a Kd in assay [1] of 9.8 µM. Also, the outcome in assay [2] was inactive.
In assay [1], `Nc1nc(NCc2ccccc2)c2[nH]cnc2n1` displayed a Kd of 0.93 µM. Moreover, the outcome in assay [2] was inactive.
`Nc1nc(N)c(N)c(=O)[nH]1` showed a Kd in assay [5] of 0.1 µM.
In turn, `NC(=O)Nc1nc2[nH]cnc2c(=O)[nH]1` displayed a dissociation constant (Kd) in assay [1] of 21 µM. For the same compound, the result in assay [2] was inactive.
Turning to `O=C(NCCN1CCOCC1)Nc1nc2[nH]cnc2c(=O)[nH]1`, the equilibrium dissociation constant (Kd) in assay [1] was found to be 27.6 µM. The compound also had an MIC in assay [3] of 1250 µg/mL (≈ 4.07 mM).
In assay [1], `CN(C)c1nc(N)nc2[nH]cnc12` showed a dissociation constant Kd of 48.3 µM. In addition, the result in assay [2] was inactive.
In assay [1], `CCC(=O)Nc1nc2[nH]cnc2c(=O)[nH]1` displayed a Kd of 0.56 µM. The result in assay [2] was inactive.
In turn, `CN(C)C(=O)Nc1nc2[nH]cnc2c(=O)[nH]1` showed a Kd in assay [1] of 16.4 µM. Besides, the minimal inhibitory concentration (MIC) in assay [3] was 1250 µg/mL (≈ 5.63 mM).
With `CNC(=O)Nc1nc2[nH]cnc2c(=O)[nH]1`, the Kd in assay [1] is greater than 1000 µM. The outcome in assay [2] was inactive.
As to `Nc1nc(NCC2CC2)c2nc[nH]c2n1`, the equilibrium dissociation constant (Kd) in assay [1] was determined as 68.9 µM. The compound also yielded a minimal inhibitory concentration (MIC) in assay [3] of 312 µg/mL (≈ 1.53 mM).
In assay [1], `O=C(Nc1nc2[nH]cnc2c(=O)[nH]1)N1CCOCC1` yielded a Kd of 1.81 µM. Moreover, in assay [2], the outcome was inactive.
Compound `O=C(O)CCCC(=O)Nc1nc2[nH]cnc2c(=O)[nH]1` displayed a Kd in assay [1] of 0.45 µM. The result in assay [2] was inactive.
For the compound `COCCCNc1nc2[nH]cnc2c(=O)[nH]1`, the Kd in assay [1] is 2.2 µM. Besides, the result in assay [2] was inactive.
Regarding `Nc1nc(NCc2cccnc2)c2nc[nH]c2n1`, in assay [1], the dissociation constant (Kd) is greater than 1000 µM. The same compound gave an MIC in assay [3] of 625 µg/mL (≈ 2.59 mM).
As to `Nc1nc(NC2CC2)c2nc[nH]c2n1`, binding in assay [1] was characterised by a dissociation constant (Kd) of 25 µM. The compound further returned a minimum inhibitory concentration (MIC) in assay [3] of 1250 µg/mL (≈ 6.57 mM).
`Nc1nc2ncsc2c(=O)[nH]1` came in with a dissociation constant (Kd) in assay [1] greater than 1000 µM. For the same compound, the MIC in assay [3] worked out at 78 µg/mL (≈ 0.464 mM).
Take `O=c1[nH]c(NC2CCCCC2)nc2[nH]cnc12`: the Kd in assay [1] worked out at 6.5 µM. In assay [3], this compound showed a minimum inhibitory concentration (MIC) of 78 µg/mL (≈ 0.334 mM).
On to `O=c1[nH]c(NC2CCC2)nc2[nH]cnc12`, for which, in assay [1], the dissociation constant (Kd) amounted to 2.4 µM. The MIC in assay [3] was determined as 1250 µg/mL (≈ 6.09 mM).
In turn, `CNc1nc2[nH]cnc2c(=O)[nH]1` came in with a dissociation constant Kd in assay [1] greater than 1000 µM. The outcome in assay [2] was inactive.
As for `Nc1nc(NC2CCC2)c2nc[nH]c2n1`, the dissociation constant Kd in assay [1] was greater than 1000 µM. Moreover, inhibition of growth in assay [3] (MIC) required 1250 µg/mL (≈ 6.12 mM).
In turn, `NCCCNc1nc(N)nc2[nH]cnc12` came in with an equilibrium dissociation constant (Kd) in assay [1] of 0.32 µM. For the same compound, the result in assay [2] was inactive.

(Values after ChEMBL document CHEMBL4138233, “Purine analogs targeting the guanine riboswitch as potential antibiotics against Clostridioides difficile” (Eur J Med Chem, 2018).)
